The values below come from patent US20150359867A1, “OVARIAN CANCER VACCINES AND VACCINATION METHODS” (IMMUNOCELLULAR THERAPEUTICS, LTD., priority 2013, published 2015).

This experiment has as its system T2 cells pulsed with CD133 HLA-A2 peptides. Kind of experiment: IFN-γ ELISPOT assay of antigen-specific T cell response. Format: cell-based, human. The conditions noted are these: 1×10^5 CTL co-cultured with 7.5×10^4 T2 cells pulsed with 10 μg/ml of peptides, 20 hours; FIG. 3. On the procedure: To test this hypothesis, effector CD8^+′ T cells were isolated and co-cultured with HLA-A2+ DC pulsed with CD133 peptides to induce antigen-specific CTLs. Antigens-specific T cell responses were evaluated by an IFN-γ ELISPOT assay.
Human monocyte-derived DC was generated using previously described methods. Briefly, monocytes were isolated from PBMC by magnetic immunoselection using EasySep human monocyte enrichment kit (Stem Cell Technologies) in accordance with the manufacturer's instructions and then cultured at […] in 20 ml of GMP CellGenix DC serum-free medium (Cat#20801-0500, Cellgenix) supplemented with 1000 unit/ml of recombinant human GM-CSF (Cat#AF-300-03, Peprotech, Inc) and recombinant human IL-4(Cat#AF-200-04, Peprotech, Inc). Cells were harvested after 3 or 6 days of culture. The DCs were washed and plated in 6-well plates at a concentration of 5×10^6 cells/well IFN-γ (1000 unit/ml) and monophosphoryl lipid A (MPLA, 20-50 μg/ml) was added into the wells to mature the DC for 24 hr or 48 hrs. Prior to some assays, DC was frozen and stored into liquid nitrogen.
In order to evaluate antigen-specific immune responses, CD8^+ T cells were isolated from fresh or frozen apheresis by positive selection using Dynabeads® CD8 Positive Isolation Kit (Life Technologies, Grand Island, N.Y.) and co-cultured with autologous mDC for four weeks. DCs were added weekly. Briefly, mDC was pulsed with synthetic peptides ([…]) for 6-8 hours at 37° C., and then treated with 20 μg/ml Mitomycin C (Sigma-Aldrich, St. Louis, Mo.) for 25 min at 37° C. and 5% CO2. […]
Antigen-specific immune responses were evaluated by the IFN-γ Elispot kit (BD Biosciences) following previously described methods. […] The colored spots, representing cytokine-producing cells, were counted under a dissecting microscope. The results were evaluated by an automated ELISPOT reader system using KS ELISPOT 4.3 software.

As for “ILSAFSVYV (listed as Homo sapiens) [CD133p405, CD133 HLA-A2 peptide, position 405-413]”, the “antigen-specific T cell response: recognition of peptide-pulsed T2 cells by peptide-specific CTLs (IFN-γ ELISPOT)” value was “can efficiently recognize T2 pulsed with these antigens and boost the T cell immune response”.
On to “YLQWIEFSI (listed as Homo sapiens) [CD133p753, CD133 HLA-A2 peptide]”, for which the “antigen-specific T cell response: recognition of peptide-pulsed T2 cells by peptide-specific CTLs (IFN-γ ELISPOT)” value was “can efficiently recognize T2 pulsed with these antigens and boost the T cell immune response”.
Then “FLLPALIFAV (listed as Homo sapiens) [CD133p804, CD133 HLA-A2 peptide, position 804-813]”, with “can efficiently recognize T2 pulsed with these antigens and boost the T cell immune response”.
